Experimental data published in patent publication US10206906B2, “Synergistic combination of a phenolic-rich maple syrup extract and an antibiotic” (priority 2015, dated 2019).
In brackets after ≈: the same amount, converted by molar mass.

Key:
[1] = system: outer membrane of E. coli CFT073; experiment: Outer membrane permeabilization, NPN uptake assay; type: cell-based, Escherichia coli; details: positive control gentamicin, above and below MICs
Description: (§1) The cells are harvested, washed with 5 mM HEPES buffer (pH 7.2), and resuspended in the same volume (10 mL) of 5 mM HEPES buffer (pH 7.2) containing 1 mM N-ethylmaleimide (NEM, Sigma-Aldrich Canada). Aliquots (1 mL) are mixed with NPN to a final concentration of 10 μM (in cell suspension) and fluorescence is measured using the microplate reader (ex/em 350/420 nm).

[2] = system: outer membrane of P. mirabilis HI4320; experiment: Outer membrane permeabilization, NPN uptake assay; type: cell-based, Proteus mirabilis; details: positive control gentamicin, above and below MICs
Description: as §1

[3] = system: outer membrane of P. aeruginosa PA14; experiment: Outer membrane permeabilization, NPN uptake assay; type: cell-based, Pseudomonas aeruginosa; details: positive control gentamicin, above and below MICs
Description: as §1

[4] = system: outer membrane of P. aeruginosa PAO1; experiment: Outer membrane permeabilization, NPN uptake assay; type: cell-based, Pseudomonas aeruginosa; details: positive control gentamicin, above and below MICs
Description: as §1

E. coli CFT073 [5] = experiment: Determination of minimum inhibitory concentration (MIC); type: cell-based; details: Escherichia coli, CFT073, 18 h; read-out: MIC
Description: (§2) A range of concentration of antibiotics, ciprofloxacin (0.0003-0.25 μg mL^−1) and carbenicillin (0.5-512 μg mL^−1), are chosen due to their known potency against all four bacterial strains. Dilutions are prepared in flat bottom, 96 well microtitre plates (Falcon™, Corning™, Fisher Scientific, ON, Canada). Each well of a microtitre plate is then inoculated with the desired bacterial strain (grown in MHB-II and diluted to […]) and the plate is incubated at 37° C. for 18 h under static conditions. Bacterial growth is assessed by (i) monitoring the optical density of the cell suspension in each well at 600 nm (OD600 nm), and (ii) the resazurin microtitre plate assay. In the resazurin microtitre plate assay, each well of a microtitre plate is supplemented with 20 μM resazurin, incubated in the dark for 20 min at room temperature, followed by fluorescence measurements at ex/em 570/590 nm using a TECAN Infinite M200 Pro microplate reader (Tecan Group Ltd., Switzerland). The lowest concentration of a compound able to prevent increase in OD600 nm and resazurin fluorescence intensity is recorded as the MIC for that compound.

P. aeruginosa PAO1 [6] = experiment: as above; type: cell-based; details: Pseudomonas aeruginosa, PAO1, 18 h; read-out: MIC
Description: as §2

P. mirabilis HI4320 [7] = experiment: as above; type: cell-based; details: Proteus mirabilis, HI4320, 18 h; read-out: MIC
Description: as §2

P. aeruginosa PA14 [8] = experiment: as above; type: cell-based; details: Pseudomonas aeruginosa, PA14, 18 h; read-out: MIC
Description: as §2

P. mirabilis HI4320 [9] = experiment: Checkerboard microdilution assay (growth inhibition synergy); type: cell-based, Proteus mirabilis
Description: (§3) The checkerboard microdilution assay is used for evaluation of in vitro antimicrobial synergy between two compounds (i.e., antibiotic/PRMSE, antibiotic/pure phenolic compound, and pure phenolic compounds with each other). Two-fold serial dilutions are prepared in MHB-II for each of the two compounds under study. The serial dilutions are then loaded into 96 well plates to achieve combinations having different concentrations of each of the two compounds. Each well is subsequently inoculated with 10^6 CFU mL^−1 of the desired bacterial strain and incubated at 37° C. for 18 h under static conditions. The Fractional Inhibitory Concentration Index (FICI) for each combination is calculated by using the following formula: FICcomponent 1=MICcomponent 1, in combination/MICcomponent 1,alone FICI=FICcomponent 1+FICcomponent 2
(§4) The FICIs are interpreted as follows: FICI of […] (synergy); 0.5<FICI ≤1 (no interaction/indifference); FICI of >4 (antagonism).

E. coli CFT073 [10] = experiment: as above; type: cell-based, Escherichia coli
Description: as §3, §4

P. aeruginosa PAO1 [11] = experiment: as above; type: cell-based, Pseudomonas aeruginosa
Description: as §3, §4

P. aeruginosa PA14 [12] = experiment: as above; type: cell-based, Pseudomonas aeruginosa
Description: as §3, §4

[13] = system: proton motive force-driven multidrug efflux pump of P. mirabilis HI4320; experiment: Ethidium bromide (EtBr) efflux assay; type: cell-based, Proteus mirabilis; details: PRMSE, catechol at 0.25 times the MIC; CCCP 100 μM; untreated cells 35.9
Description: (§5) An overnight grown culture of each strain is diluted 1:100 using MHB-II broth to a final volume of 10 mL and grown to an OD600 of 0.8-1.0 (at 37° C., 150 rpm). […] The tubes are incubated for 1 h (37° C., 150 rpm). The inoculum is then adjusted to 0.4 OD600 with MHB-II broth containing 5 μM EtBr and 2 mL aliquots of this mixture are pelleted (5000×g, 10 min at 4° C.). The pellets are incubated on ice immediately, resuspended in 1 mL of MHB-II, and aliquoted (200 μL) into a polystyrene 96 well black, clear-bottom plate (Corning™, Fisher Scientific, ON, Canada). EtBr efflux from the cells is monitored at room temperature using the microplate reader (ex/em 530/600 nm). Readings are taken at 5 min intervals for 1 h to monitor efflux pump activity. The background fluorescence of the medium is subtracted from all measurements and the assay is repeated independently in triplicate.

[14] = system: proton motive force-driven multidrug efflux pump of E. coli CFT073; experiment: Ethidium bromide (EtBr) efflux assay; type: cell-based, Escherichia coli; details: PRMSE, catechol at 0.25 times the MIC; CCCP 100 μM; untreated cells 36.9
Description: as §5

[15] = system: proton motive force-driven multidrug efflux pump of P. aeruginosa PAO1; experiment: Ethidium bromide (EtBr) efflux assay; type: cell-based, Pseudomonas aeruginosa; details: PRMSE, catechol at 0.25 times the MIC; CCCP 100 μM; untreated cells 37.6
Description: as §5

[16] = system: proton motive force-driven multidrug efflux pump of P. aeruginosa PA14; experiment: Ethidium bromide (EtBr) efflux assay; type: cell-based, Pseudomonas aeruginosa; details: PRMSE, catechol at 0.25 times the MIC; CCCP 100 μM; untreated cells 30.9
Description: as §5

[17] = ciprofloxacin in combination with the labelled phenolic constituent
[18] = labelled phenolic constituent + ciprofloxacin, * = synergistic interaction
[19] = labelled phenolic constituent in combination with ciprofloxacin

With gentamicin [reference compound] the “Minimum permeabilization concentration (NPN assay)” value [1] was 0.006 µg/mL, the Minimum permeabilization concentration [2] was 0.013 µg/mL and the Minimum permeabilization concentration [3] was 1 µg/mL. It also gave a Minimum permeabilization concentration [4] of 1 µg/mL.
In the case of `O=C(O)c1cc(O)c(O)c(O)c1` [gallic acid], the MIC (E. coli CFT073 [5]) is reported as 5000 µg/mL (≈ 29.4 mM), the MIC (P. aeruginosa PAO1 [6]) is reported as 5000 µg/mL (≈ 29.4 mM) and the MIC (P. mirabilis HI4320 [7]) is reported as 5000 µg/mL (≈ 29.4 mM). For the same molecule, the MIC (P. aeruginosa PA14 [8]) was 5000 µg/mL (≈ 29.4 mM), the FIC of ciprofloxacin (P. mirabilis HI4320 [9]; [17]) was 1 and the FICI (P. mirabilis HI4320 [9]; [18]) was 2. For the same molecule, the FIC of compound (P. mirabilis HI4320 [9]; [19]) was 1, the FIC of ciprofloxacin (E. coli CFT073 [10]; [17]) was 1 and the FICI (E. coli CFT073 [10]; [18]) was 2. It also gave an FIC of compound (E. coli CFT073 [10]; [19]) of 1, an FIC of ciprofloxacin (P. aeruginosa PAO1 [11]; [17]) of 1 and an FICI (P. aeruginosa PAO1 [11]; [18]) of 2. It also gave an FIC of compound (P. aeruginosa PAO1 [11]; [19]) of 1, an FIC of ciprofloxacin (P. aeruginosa PA14 [12]; [17]) of 1 and an FICI (P. aeruginosa PA14 [12]; [18]) of 2. It also gave an FIC of compound (P. aeruginosa PA14 [12]; [19]) of 1.
For `N#CC(C#N)=NNc1cccc(Cl)c1` [CCCP, carbonyl cyanide m-chlorophenylhydrazone, reference compound], the Efflux pump activity [13] was 14.5%, the Efflux pump activity [14] was 15.8% and the “% EtBr efflux” value [15] was 19.3%. The Efflux pump activity [16] was 17%.
